Measured values: PMC8822125, “RW-BP100-4D, a Promising Antimicrobial Candidate With Broad-Spectrum Bactericidal Activity” (Frontiers in Microbiology, 2022)
Values after ≈ are worked out from the molar mass of the structure shown. Values joined by “and” are separate entries in the source; they are usually repeats but may differ in a detail not shown here. Equal entries are not always repeated. Where a SMILES comes first, the peptide text is derived from it.

Key:
[1] = system: Staphylococcus epidermidis ATCC29887; settings: mean of three repeated experiments
Experimental: (§1) To compare the antibacterial activity of RW-BP100 and its serial derivatives, the MIC against S. aureus ATCC29213 and E. coli ATCC25922 were determined using broth microdilution method according to the guidelines of Clinical and Laboratory Standards Institute (CLSI) M100-S25 ([CLSI, 2015]). Briefly, peptides were dissolved in sterilized water and twofold diluted in Mueller-Hinton (MH) broth (Beijing Land Bridge Technology) at the concentration ranges of 0.098–100 μg/mL. Then the peptides were mixed with an equal volume (100 μL) of bacterial suspensions of 10^6 CFU/mL in a sterilized 96-well microtiter plate. […] To further evaluate the antimicrobial spectrum of RW-BP100-4D, MICs were determined against a more variety of Gram-positive and Gram-negative bacterial species, and the fungal strains (according to CLSI M38 guideline). […] MIC and MBC testing were performed with three independent repeats.

[2] = system: Listeria monocytogenes LM08; settings: Listeria monocytogenes LM08 (tetM); mean of three repeated experiments
Experimental: as §1

[3] = system: Listeria monocytogenes ATCC19115; settings: mean of three repeated experiments
Experimental: as §1

[4] = system: Pseudomonas fluorescens AC04; settings: mean of three repeated experiments
Experimental: as §1

Escherichia coli XG-E1 = Escherichia coli XG-E1 (blaNDM-5, mcr-1); mean of three repeated experiments
Experimental: as §1

Enterococcus faecalis 32 = Enterococcus faecalis 32 (optrA); mean of three repeated experiments
Experimental: as §1

Fusarium oxysporum LD21 = test: MIC/MBC, broth microdilution (CLSI M38); type: cell-based
in vitro = settings: calf serum
trypsin = test: in vitro
MAC-T cells = settings: peptide 150 μg/mL, 24 h, WST-1, mean ± SD, three repeats
[5] = system: S. aureus ATCC29213 biofilm formation; settings: peptide 6.25 μg/mL, 24 h, 37°C, crystal violet OD590
[6] = 100 μg/mL in PBS, 1 h
[7] = system: Staphylococcus aureus ATCC29213; test: MIC/MBC, broth microdilution; type: cell-based
[8] = system: Candida albicans ATCC10231; test: MIC/MBC, broth microdilution (CLSI M38); type: cell-based
RAW264.7 cells = settings: peptide 150 μg/mL, 24 h, WST-1, mean ± SD, three repeats
Escherichia coli 47EC = Escherichia coli 47EC (tet(X4)); mean of three repeated experiments
[9] = CLSI M38, mean of three repeated experiments
[10] = mean of three repeated experiments

Work on `CC[C@H](C)[C@H](NC(=O)[C@H](CCCNC(=N)N)NC(=O)[C@H](CCCNC(=N)N)NC(=O)[C@@H](Cc1ccccc1)NC(=O)[C@H](CC(C)C)NC(=O)[C@H](CCCNC(=N)N)NC(=O)[C@@H](N)CCCNC(=N)N)C(=O)N[C@@H](CC(C)C)C(=O)N[C@@H](CCCNC(=N)N)C(=O)N[C@@H](Cc1c[nH]c2ccccc12)C(=O)N[C@@H](CC(C)C)C(N)=O` [RW-BP100-4D] (HELM PEPTIDE1{R.R.L.[dF].R.R.I.L.R.W.L.[am]}$$$$V2.0) yielded an MBC of peptides [1] of 6 µg/mL, an MIC of peptides [1] of 3 µg/mL and an MBC of peptides [2] of 6 µg/mL. The MIC of peptides [2] was 3 µg/mL, the MBC of peptides [3] was 6 µg/mL and the MIC of peptides [3] was 3 µg/mL. It also gave an MBC of peptides [4] of 12 µg/mL, an MIC of peptides [4] of 6 µg/mL and an MBC of peptides (Escherichia coli XG-E1) of 6 µg/mL. The MIC of peptides (Escherichia coli XG-E1) was 3 µg/mL, the MBC of peptides (Enterococcus faecalis 32) was 50 µg/mL and the MIC of peptides (Enterococcus faecalis 32) was 12 µg/mL. For the same compound, the MIC of peptides (Fusarium oxysporum LD21; [9]) was 12 µg/mL, the MBC of peptides (Fusarium oxysporum LD21; [10]) was 25 µg/mL and the metabolised at 1 h, 100 μg/mL (in vitro) was > 90%. The metabolised at 1 h, 100 μg/mL (trypsin) was > 90%, the “Cell survival rate, MAC-T” value (MAC-T cells) was 92.68 ± 3.65% and the “Biofilm inhibited compared with the PBS control” value [5] was 82.3%. For the same compound, the “Degradation, 40-80 ℃” value ([6]; pH 7, 40-80 ℃, decrease of HPLC peak area (C8, UV 220 nm) of native peptide) was 0%, the “Degradation, 90 ℃” value ([6]; pH 7, 90 ℃, decrease of HPLC peak area (C8, UV 220 nm)) was 56% and the “Degradation, 100 ℃” value ([6]; pH 7, 100 ℃, decrease of HPLC peak area (C8, UV 220 nm)) was 82%. For the same compound, the “MIC Staphylococcus aureus ATCC29213” value ([7]; Table 1, broth microdilution CLSI M100-S25, MH broth, 37°C, 18 h, three independent repeats) was 3 µg/mL (≈ 1.89 µM), the MIC of peptides ([7]; Table 2, Staphylococcus aureus ATCC29213, mean of three repeated experiments) was 6 µg/mL and 3 µg/mL and the MIC of peptides [8, 9] was 12 µg/mL. For the same compound, the MBC of peptides [8, 10] was 25 µg/mL, the “Cell survival rate, RAW264.7” value (RAW264.7 cells) was 78.02 ± 7.66% and the MBC of peptides (Escherichia coli 47EC) was 12 µg/mL. The MIC of peptides (Escherichia coli 47EC) was 3 µg/mL and 6 µg/mL.
